Patent US9073858B2, “Methods of targeted drug development” (priority 2010, dated 2015)
Where two headings read alike, the source gives them in different places.

What was measured:
[1] = test system: DNA fragmentation in A549 cells; assay: DNA Fragmentation Assay (Cell Death Detection ELISA); type: cell-based; details: for Emax at 1 µM / Emax at 10 µM: A549, read-out: % Increase Relative to Staurosporin
[2] = Stability on incubation with human liver microsomes (HLM); type: in vitro ADME; details: percentage left after incubation with human liver microsomes for 30 minutes
Summary of the method: (§1)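 Values are percent compound remaining after 30 min incubation with mouse or human liver microsomes.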

HT-29 cells = assay: HT-29 Cell Proliferation Assay (MTT); type: cell-based; details: Homo sapiens, HT-29, 72 h, read-out: IC50 Value (μM) HT-29 Cells
annexin V in A549 cells = details: for % Total Apoptosis: cells in early- and late-stage apoptosis; for % Relative to Reference Cpd.: reference 4.0 μM camptothecin or 1.0 μM staurosporin
Text: Assays that measure apoptosis are utilized to determine whether or not compounds can induce programmed cell death in cancer cells. Annexin V is a protein that is used to detect apoptosis by binding to phosphatidylserine expressed on membranes of dead or dying cells. Fluorescently tagged with FITC, it can he used in conjunction with 7-aminoactinomycin D to determine the percentage of cells undergoing apoptosis via flow cytometry. Cells in early apoptosis will emit an FITC signal which will eventually be replaced by the far red 7-AAD signal that is associated with cell membrane permeability due to necrosis.
In brief, for the Annexin V Assay, compounds were added to cells plated in 6-well plates. Treated cells were incubated for up to 30 hours before addition of fluorescent cell marker probes that detect the presence of annexin V. The percentage of cells undergoing apoptosis and necrosis were determined by flow cytometry.
On day 2, working solutions of compounds (at 1000×) were prepared. To 2.0 ml media/well was added 2 μl 1000× compound diluted in 100% DMSO for final DMSO concentration of 0.1%. On day 3, plates were incubated for 30 hrs. […] Cells were collected by centrifugation at 300×g for 5 min.
Resuspended cells were stored at 4° C. in the dark, until flow cytometry analysis.
For flow cytometry analysis of the Annexin V Assay, sample acquisition was on the BD LSR II manufactured by BD Biosciences, San Jose, Calif. […] 10,000 events werer collected based on a stopping gate of forward scatter vs side scatter light. Acquisition was done through BD FACS DiVa software version 6.1.1 on high flow rate (60 μL/min). Calculations were as follows: Quadrant 3=lower left=live cells; Quadrant 4=lower right=early apoptosis; Quadrant 2=upper right=late apoptosis; Quadrant 1=upper left=dead cells. Percent (%)Total apoptosis was calculated as early (quadrant 4)+late (quadrant 2). Percent (%) ratio apoptosis was calculated as (experimental-No treatment/positive control)*100. All statistical analyses are done using GraphPad Prism or Microsoft Excel.

H1975 cells = assay: H1975 Cell Proliferation Assay (MTT); type: cell-based; details: Homo sapiens
[3] = Stability on incubation with mouse liver microsomes (MLM); type: in vitro ADME; details: percentage left after incubation with mouse liver microsomes for 30 minutes
Summary of the method: as §1

[4] = Homo sapiens, A549, 24 h, read-out: % Increase over Background
[5] = NCI-H1975, 72 h, read-out: IC50 Value (μM) H1975 Cells

IC50 (H1975 cells; NCI-H1975, H1975 cells, 72 hours post compound treatment, read-out: IC50 (best fit value from FIG. 10)) [µM] | IC50 (H1975 cells; NCI-H1975, H1975 cells, 72 hours post compound treatment, read-out: Log IC50 (best fit value from FIG. 10) (converted)) [µM] | IC50 (H1975 cells; NCI-H1975, MTT, 72 hours, read-out: IC50 Value (μM) H1975 Cells) [µM] | SMILES | apoptotic activity ([1]; Caspase, DNA Fragmentation, Annexin-V) | activation at 1 µM [1, 4] [%] | activation at 10 µM [1, 4] [%] | Emax at 1 µM ([1]; Homo sapiens) [%] | Emax at 10 µM ([1]; Homo sapiens) [%] | HLM % Remaining@ 30 Min [2] [%] | IC50 (HT-29 cells) [µM] | apoptosis, share of the cell population (annexin V in A549 cells; 1 μM, A549 cells, FIG. 16B) | % Total Apoptosis (annexin V in A549 cells; 1 μM, A549 cells) [%] | % Relative to Reference Cpd. (annexin V in A549 cells; 1 μM) [%] | late apoptosis, share of the cell population (annexin V in A549 cells; 10 μM, A549 cells, FIG. 16B) | % Total Apoptosis (annexin V in A549 cells; 10 μM, A549 cells) [%] | % Relative to Reference Cpd. (annexin V in A549 cells; 10 μM) [%] | IC50 (H1975 cells; [5]) [µM] | MLM % Remaining@ 30 Min [3] [%]
 |  |  | Cc1cc(Cl)cnc1NC(c1ccc(Cl)cc1Cl)c1ccc2cccnc2c1O (stereo not drawn) [AD4-13130] | increased apoptotic activity | 630 | 684 | 62 | 69 | 89 | 0.64 | greater than 50% | 32 | 178 | up to 20% | 38 | 166 | 0.088 | 69
 |  |  | Cc1c(Cl)cnc(NC(c2cccc(Cl)c2Cl)c2ccc3cccnc3c2O)c1F (stereo not drawn) [AD4-13192] |  |  | 561 | 11 | 55 | 100 | 2.2 |  | 29 |  |  | 30 |  | 0.19 | 63
0.304 | 0.304 | 0.3 | Oc1c(C(Nc2ccccn2)c2ccc(C(F)(F)F)cc2)ccc2cccnc12 (stereo not drawn) [compound 10460] |  |  |  |  |  |  |  |  |  |  |  |  |  |  | 
